From patent US10363229B2, “Methods and compositions for the treatment of cancer” (priority 2009, dated 2019)

What was measured:
CEM leukemic lymphocytes = assay: Apoptosis of leukemic lymphocytes by Flow Cytometry; type: cell-based, human
Experimental: CEM leukemic lymphocytes were also incubated in the presence or absence of 10% methyl sulfone.
(§1) After 20 hours, cells were incubated with fluorescent antibodies to identify T-cells, B-cells and neutrophils, and then processed by Flow Cytometry (FIG. 15).

[1] = system: actin filaments in melanoma cells; assay: Immunofluorescence of actin filaments; type: cell-based, mouse; conditions: 2% methyl sulfone, 72 hours
Experimental: Cells were plated onto 10-well slides ( ) that were pre-treated with sulfuric acid. After 24 hours, medium was removed and 2% methyl sulfone in medium was added to half the slides; control cells received medium alone. At 72 and 144 hours, cells were washed in 37° C. PBS, pH 7.4, and fixed in 3.7% formaldehyde in PBS for 10 minutes. PBS was used to wash cells three times followed by a wash in 0.1% Triton X-100/PBS for 5 minutes. Cells were again washed three times in PBS, then in 1% BSA/PBS for 20 minutes. Cells were incubated with Rhodamine-labeled Phalloidin (Molecular Probes, Eugene, Oreg.; diluted 1/40 in 1% BSA/PBS) for 20 minutes. After washing three times in PBS, SlowFade was added to each well. Glass coverslips were placed over each slide and sealed with nail polish. Images were visualized using 568-nm excitation on a Perkin Elmer Ultraview RS5 spinning-disk confocal scanning system mounted on a Nikon TE2000 inverted microscope with a 100×1.4 NA Plan Apo oil immersion objective. (William A. Mohler, Ph.D., Director, Spinning Disk Microscope Facility, University of Connecticut Health Center).

melanoma cells [2] = assay: Soft agar assay for colony formation; type: cell-based, mouse; conditions: 2% methyl sulfone; control hundreds of colonies
Experimental: Cells were plated on 8-35 mm plates that contained base agar with and without 2% methyl sulfone. To make base agar, 1% agar (DNA grade; Difco Bacto Agar; Becton Dickenson and Company, Sparks, Md.), was mixed in water at room temperature, melted in a microwave, and cooled to 40° C. before using. For drug plates, 1% agar was combined (1:1) with 4% methyl sulfone in 2×RPMI medium with sodium bicarbonate supplemented with 10% FBS and 5% penicillin/streptomycin. For control plates, 1% agar was combined (1:1) with 2×RMPI medium. Agar +/−2% methyl sulfone was added to appropriate 35 mm tissue culture plates and stored overnight at 4° C. The next day top agar and cells were placed on top of the base agar. Top agar was made with 0.66% agar in water. The agar was melted in a microwave, cooled, and stored at 40° C. 2×RPMI medium and 4% methyl sulfone was also stored at 40° C. Cells were trypsinized and counted for a final concentration of 5×10^3 cells/plate. Cell counts were adjusted to 2×10^5 cells/ml and 0.05 ml of the cell suspension was added to 15 ml centrifuge tubes (2 each). Base agar plates were removed from 4° C. and allowed to warm to room temperature for approximately 30 minutes prior to plating. […] Colonies were photographed and counted with a dissecting microscope. […]

[3] = system: normal lymphocytes (T-cells) from a healthy volunteer; assay: Apoptosis of normal T-cell lymphocytes by Flow Cytometry; type: cell-based, human
Description: Normal T-cell lymphocytes were obtained from a blood sample of a healthy volunteer. Blood samples were obtained with IRB approval and with the volunteer signing an Informed Consent Form. White blood cells were separated from red blood cells using a Ficoll gradient. Flow cytometry with antibodies against CD3 and CD4 was used to identify T-cell lymphocytes (Flow Cytometry Facility, University of Connecticut Health Center, Farmington, Conn.).
Blood was drawn from healthy volunteers and white blood cells (e.g., lymphocytes, neutrophils) were enriched using Ficoll-Plaque. Cells were incubated in Petri dishes containing MEM with 7% fetal calf serum in a CO2 (5%) incubator at 37° C.; Methyl sulfone was present at concentrations of 0, 3, 6, or 10%. After 20 hours, cells were incubated with antibodies specific to T-lymphocytes (CD3 and CD4 T-cells), B-lymphocytes (B-cells) and neutrophils, and the percent of apoptotic cells was determined by Flow Cytometry. This is a technique that identifies specific cell types (e.g., CD3 T-cells, CD4 T-cells, B-cells, neutrophils) within a mixed population of blood cells, and then determines whether the cells are alive or apoptotic.
as §1

melanoma cells [4] = assay: Cell invasion assay (Transwell, ECM gel); type: cell-based, mouse; conditions: 2% methyl sulfone
Experimental: Invasion assays were performed in Transwell chambers (Corning). The 8 μm pore membranes of the upper chambers were coated with ECM gel from Engelbreth-Holm-Swarm murine sarcoma (Sigma), diluted 1:6 with RPMI medium +/−2% methyl sulfone, and placed in a well with RPMI medium +/−2% methyl sulfone. Cells (1×10^5 cells/200 μl) were seeded into appropriate upper chambers in RMPI medium+/−2% methyl sulfone. After 20 hours of incubation at 37° C., cells were removed from top surface of the chamber and filters were fixed with 5% glutaraldeyde. Cells on the lower surface of the filter were stained with a 0.5% solution of toluidine blue. Membranes of inserts were removed with a razor, mounted between a glass slide and a coverslip, and held in place with scotch tape. Cells were photographed and counted at the Center for Cell Analysis and Modeling, University of Connecticut Health Center, Farmington, Conn., with an Axioplan CCD Microscope equipped with a 40×1.3 NA FL objective lens and high speed digital cooled CCD camera via Metamorph image acquisition and analysis software (Universal Imaging Corp., Downington, Pa.). All assays were performed in triplicate.
A second classic characteristic of metastatic cells is their ability to migrate through an extracellular matrix. We determined whether methyl sulfone altered this ability in melanoma cells. […]

[5] = summary in the description, concentration not given

methyl sulfone
CEM leukemic lymphocytes killed (CEM leukemic lymphocytes; 10% methyl sulfone, 20 hours): 92% | leukemic cells induced into apoptosis (CEM leukemic lymphocytes; [5]): more than 90% | distribution of actin filaments [1]: clearly visible at the cell surface in small protrusions that contacted neighboring cells | colony formation on soft agar (anchorage-independent growth) (melanoma cells [2]): no colony formation | viability of normal lymphocytes (T-cells) ([3]; 10% methyl sulfone, 20 hours): remained viable | T-cells from the healthy volunteer induced into apoptosis [3, 5]: less than 10% | cells that migrated through the extracellular matrix (melanoma cells [4]): none and unable to pass through the membrane
